This is an account of results in paper PMC8843131, “Inhibition studies of bacterial α-carbonic anhydrases with phenols” (Journal of Enzyme Inhibition and Medicinal Chemistry, 2022).

For one test, the target named is T1, NgCAα (Neisseria gonorrhoeae, UniProt Q50940).
T1 construct: gene cah; recombinant, obtained in-house as described earlier
T1 sequence (Q50940 27-252): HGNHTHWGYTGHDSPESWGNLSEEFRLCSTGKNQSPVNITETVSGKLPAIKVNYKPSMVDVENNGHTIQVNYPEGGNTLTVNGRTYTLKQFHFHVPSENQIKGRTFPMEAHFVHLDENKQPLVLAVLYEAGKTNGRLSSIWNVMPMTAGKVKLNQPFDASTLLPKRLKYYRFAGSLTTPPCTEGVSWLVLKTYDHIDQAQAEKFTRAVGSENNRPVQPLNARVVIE
The experiment in a line: stopped-flow CO2 hydrase assay. It counts as biochemical.

Another test deals with T2, VchCAα (Vibrio cholerae, UniProt Q9KMP6).
T2 construct: gene VC_A0274
T2 sequence (Q9KMP6 21-239 limits assumed): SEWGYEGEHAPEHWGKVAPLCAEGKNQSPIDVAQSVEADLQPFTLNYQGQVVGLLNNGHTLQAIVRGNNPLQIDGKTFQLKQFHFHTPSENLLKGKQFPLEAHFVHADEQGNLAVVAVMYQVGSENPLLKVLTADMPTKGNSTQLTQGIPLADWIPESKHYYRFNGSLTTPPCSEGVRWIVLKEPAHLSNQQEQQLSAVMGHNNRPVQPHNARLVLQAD
The experiment in a line: stopped-flow CO2 hydrase assay. Type of test: biochemical. The following applies: read-out: KI (μM)^a / VchCAα; CO2 substrate 1.7-17 mM, 10 mM HEPES pH 7.4, 10 mM NaClO4, 15 min preincubation.

Read-outs that look alike come from different tables or passages of the source.

For `Nc1cc(O)ccc1Cl` [compound 13, 3-amino-4-chlorophenol], the Ki was 0.8 µM on NgCAα and 0.7 µM on VchCAα.
Taken in the same sequence, the figures for `Oc1ccc(O)cc1` [compound 4, 4] were 4.7 µM and 8.4 µM.
As for `Oc1ccccc1O` [compound 2, 2], the Ki at NgCAα was found to be 5.3 µM; at VchCAα it was 20.3 µM.
Taken in the same sequence, the figures for `O=C(O)c1cc(O)ccc1O` [compound 20, 20] were 16.3 µM and 7.3 µM.
Taken in the same sequence, the figures for `Oc1cccc(O)c1` [compound 3, 3] were 2.2 µM and 8.6 µM.
The like results for `Nc1ccc(O)cc1` [compound 7, 7] were, in that order, 6 µM and 10.6 µM.
`Oc1ccccc1` [compound 1, phenol]: the figures for the Ki at NgCAα and on VchCAα were 0.9 µM and 0.8 µM, respectively.
Taken in the same sequence, the figures for `O=C(O)/C=C/c1ccc(O)cc1` [compound 21, 21] were 10 µM and 40.5 µM.
Taken in the same sequence, the figures for `Oc1ccc(O)c(O)c1` [compound 5, 5] were 3.9 µM and 9.4 µM.
Taken in the same sequence, the figures for `O=C(O)c1ccc(O)cc1` [compound 11, 4-hydroxy-benzoic acid] were 8.7 µM and 3.5 µM.
In the case of `O=C(O)c1ccccc1O` [compound 10, salicylic acid], the Ki turned out to be 43.8 µM on NgCAα and 39.1 µM on VchCAα.
Taken in the same sequence, the figures for `Nc1cccc(O)c1` [compound 6, 3-aminophenol] were 1.7 µM and 3.9 µM.
As to `OCc1ccc(O)cc1` [compound 12, 4-hydroxy-benzylalcohol], the Ki on NgCAα came to 0.6 µM; on VchCAα it was 1.2 µM.
The like results for `O=C(O)/C=C/c1ccc(O)c(O)c1` [compound 22, caffeic acid] were, in that order, 76 µM and 78.1 µM.
Taken in the same sequence, the figures for `Oc1cc(F)cc(F)c1` [compound 16, 3,5-difluorophenol] were 3.7 µM and 4.9 µM.
For the compound `O=C(O)c1ccc(O)c(O)c1` [compound 18, 3,4-dihydroxybenzoic acid], the Ki on NgCAα amounted to 9.3 µM; on VchCAα, 13.8 µM.
Taken in the same sequence, the figures for `CC(=O)Nc1ccc(O)cc1` [compound 8, paracetamol] were 1.5 µM and 7 µM.
In the case of `Oc1ccc(F)cc1F` [compound 15, 15], the Ki on NgCAα stood at 35.9 µM; on VchCAα it was 36.6 µM.
As for `N#Cc1ccc(O)cc1` [compound 9, 4-cyanophenol], the Ki at NgCAα (CO2 substrate 1.7-17 mM, 10 mM HEPES pH 7.4, 10 mM NaClO4, 15 min preincubation) came out at 24.2 µM; on VchCAα, 17.2 µM.
In the case of `O=C(O)c1c(O)cccc1O` [compound 19, 19], the Ki on NgCAα came out at 33.1 µM; at VchCAα, 49.6 µM.
Take `Nc1ccc(O)c(Cl)c1` [compound 14, 14]: the Ki on NgCAα is 71.5 µM; on VchCAα, 81.6 µM.
